Like-named read-outs stand apart in the source and are kept apart here.
Experiments:
[1] = system: fresh human tumor-colony-forming cells; test: Human tumor cloning assay, eight tumor cell types together; type: cell-based
Protocol: (§1) Assays of antitumor agents against fresh human tumor-colony-forming cells provide results that predict better the responses obtained in treating cancer patients than those obtained with long established human cell lines (Salmon et al., 1981). For this reason, the N-phenyl derivative 13 was tested against a variety of fresh human tumors obtained at the Arizona Cancer Center using established methodology (Salmon and Hersh, 1994).

L1210 leukemia, Sens = test: Cytotoxicity in tumor cell culture, MTT assay; type: cell-based, murine; conditions: Mus musculus
Description: (§2) Relative potencies of the N-substituted 2-cyanoaziridine-1-carboxamides in a panel of tumor cell cultures are compared in Table 3. This panel includes the following lines of human tumor cells: sensitive and imexon-resistant lines of multiple myeloma (Matsuoka et al., 1967); ovarian carcinoma resistant to standard drugs (Hamilton et al., 1984); melanoma with a slow growth fraction (Girard et al., 1973); breast carcinoma including sensitive, doxorubicin-resistant (P-glycoprotein-positive) (Taylor et al., 1991), and mitoxantrone-resistant (P-glycoprotein-negative) (Futscher et al., 1994) lines; sensitive and multidrug-resistant colon carcinoma (Noguchi et al., 1979; Dalton et al., 1988); and multidrug-resistant lung carcinoma (P-glycoprotein-negative) (Girard et al., 1973). It also has sensitive (Goldin et al., 1961) and multidrug-resistant (P-glycoprotein-positive) (Salmon and Hersh, 1994) murine L1210 leukemia cells.

L1210 leukemia, Mdr = test: Cytotoxicity in tumor cell culture, MTT assay; type: cell-based, murine; conditions: Mus musculus
Description: as §2

[2] = substituent constant, from Hansch and Leo or calculated using Clog P software; cited from earlier work
[3] = system: 8226 myeloma, Res (imexon-resistant); test: Cytotoxicity in tumor cell culture, SRB assay; type: cell-based; conditions: Homo sapiens, read-out: IC50 against human mouse tumors, 8226 myeloma Res
Description: as §2

WiDr colon, Sens = test: Cytotoxicity in tumor cell culture, SRB assay; type: cell-based
Description: as §2

WiDr colon, res = test: Cytotoxicity in tumor cell culture, SRB assay; type: cell-based; conditions: Homo sapiens, WiDr, read-out: IC50 against human mouse tumors, WiDr colon res
Description: as §2

PIE 2-3 sarcoma = conditions: cited from earlier work; for activity against PIE 2-3 sarcoma: 13: over a 10-fold dose range
[4] = system: MCF7 breast, mitox (mitoxantrone-resistant); test: Cytotoxicity in tumor cell culture, SRB assay; type: cell-based, human; conditions: Homo sapiens
Description: as §2

A-549 lung = test: Cytotoxicity in tumor cell culture, SRB assay; type: cell-based, human
Description: as §2

OVCAR3 ovarian = test: Cytotoxicity in tumor cell culture, SRB assay; type: cell-based, human
Description: as §2

[5] = system: MCF7 breast, Dox (doxorubicin-resistant); test: Cytotoxicity in tumor cell culture, SRB assay; type: cell-based, human; conditions: Homo sapiens
Description: as §2

[6] = system: 8226 myeloma, Sens (drug-sensitive); test: Cytotoxicity in tumor cell culture, SRB assay; type: cell-based, human; conditions: Homo sapiens
Description: as §2

MCF7 breast, Sens = test: Cytotoxicity in tumor cell culture, SRB assay; type: cell-based, human
Description: as §2

A375 melan = test: Cytotoxicity in tumor cell culture, SRB assay; type: cell-based, human
Description: as §2

[7] = system: Stomach (cloned fresh human tumors); test: Human tumor cloning assay, [3H]thymine uptake by tumor-colony-forming cells; type: cell-based; conditions: No. tested 1
Protocol: as §1

[8] = system: Breast (cloned fresh human tumors); test: as above; type: cell-based; conditions: No. tested 4
Protocol: as §1

[9] = system: Other Gynecologic (cloned fresh human tumors); test: as above; type: cell-based; conditions: No. tested 4
Protocol: as §1

[10] = system: Lung (cloned fresh human tumors); test: as above; type: cell-based; conditions: No. tested 2
Protocol: as §1

[11] = system: Sarcoma (cloned fresh human tumors); test: as above; type: cell-based; conditions: for no. sensitive: Sarcoma, No. tested 8
Protocol: as §1

[12] = system: Myeloma (cloned fresh human tumors); test: as above; type: cell-based; conditions: No. tested 3
Protocol: as §1

[13] = system: Ovary (cloned fresh human tumors); test: as above; type: cell-based; conditions: No. tested 12
Protocol: as §1

[14] = system: Melanoma (cloned fresh human tumors); test: as above; type: cell-based; conditions: No. tested 10
Protocol: as §1

leukocytes = conditions: in vivo; cited from earlier work
[15] = 13 2.0 μM (second column of 13)

For `N#CC1CN1C(=O)Nc1ccccc1` (centres unmarked) [Compound 13, 2-Cyanoaziridine-1-(N-phenyl)carboxamide], the “effectiveness compared with imexon” value ([1]; 13 at 0.2 μM versus imexon at 1.0 μM) was “about as effective as imexon”, the “activity and potency compared with imexon in fresh human tumor cells” value ([1]; listed as N-phenyl derivative) was “more potent and equally effective to imexon” and the IC50 (L1210 leukemia, Sens; L1210, MTT assay, read-out: IC50 against human mouse tumors, L1210 leukemia Sens) was 1.2 µM. The IC50 (L1210 leukemia, Mdr; L1210, MTT assay, multidrug-resistant, read-out: IC50 against human mouse tumors, L1210 leukemia Mdr) was 11 µM, the π [2] was 2.00 and the IC50 ([3]; line made resistant to imexon) was 8 µM. The IC50 (WiDr colon, Sens; Homo sapiens, WiDr; read-out: IC50 against human mouse tumors, WiDr colon Sens) was 5 µM, the IC50 (WiDr colon, res; multidrug-resistant) was 12 µM and the “activity against PIE 2-3 sarcoma” value (PIE 2-3 sarcoma) was “active”. The melting point was 88 to 90 °C, the IC50 ([4]; MCF7, mitoxantrone-resistant, read-out: IC50 against human mouse tumors, MCF7 breast mitox) was 4.3 µM and the IC50 (A-549 lung; Homo sapiens, A549; read-out: IC50 against human mouse tumors, A-549 lung) was 9 µM. For the same compound, the IC50 (OVCAR3 ovarian; Homo sapiens, OVCAR-3; read-out: IC50 against human mouse tumors, OVCAR3 ovarian) was 6.8 µM, the IC50 ([5]; MCF7, doxorubicin-resistant, read-out: IC50 against human mouse tumors, MCF7 breast Dox) was 2.6 µM and the IC50 ([6]; read-out: Log(1/C) (converted)) was 5.37 µM. For the same compound, the IC50 ([6]; against sensitive myeloma, values repeated from Table 3 (μM there), read-out: IC50) was 5.3 µM, the IC50 ([6]; drug-sensitive line, read-out: IC50 against human mouse tumors, 8226 myeloma Sens) was 5.3 µM and the IC50 (MCF7 breast, Sens; Homo sapiens, MCF7; read-out: IC50 against human mouse tumors, MCF7 breast Sens) was 2.9 µM. For the same compound, the IC50 (A375 melan; Homo sapiens, A-375; read-out: IC50 against human mouse tumors, A375 melan) was 11 µM, the no. sensitive ([7]; 13 0.2 μM) was 1 and the no. sensitive [7, 15] was 1. The no. sensitive ([7]; 13 2.0 μM (third column of 13)) was 1, the no. sensitive ([8]; 13 0.2 μM) was 2 and the no. sensitive [8, 15] was 2. For the same compound, the no. sensitive ([8]; 13 2.0 μM (third column of 13)) was 3, the no. sensitive ([9]; 13 0.2 μM) was 0 and the no. sensitive [9, 15] was 2. The no. sensitive ([9]; 13 2.0 μM (third column of 13)) was 3, the no. sensitive ([10]; 13 0.2 μM) was 0 and the no. sensitive [10, 15] was 1. For the same compound, the no. sensitive ([10]; 13 2.0 μM (third column of 13)) was 2, the “activity against the sarcoma cells compared with imexon” value [11] was “superior” and the no. sensitive ([11]; 13 0.2 μM) was 2/2. For the same compound, the no. sensitive [11, 15] was 4, the no. sensitive ([11]; 13 2.0 μM (third column of 13)) was 5 and the no. sensitive ([12]; 13 0.2 μM) was 2/2. The no. sensitive [12, 15] was 2/2, the no. sensitive ([12]; 13 2.0 μM (third column of 13)) was 2/2 and the no. sensitive ([13]; 13 0.2 μM) was 3/10. The no. sensitive [13, 15] was 10/11, the no. sensitive ([13]; 13 2.0 μM (third column of 13)) was 10 and the no. sensitive ([14]; 13 0.2 μM) was 3/5. It also gave a no. sensitive [14, 15] of 8 and a no. sensitive ([14]; 13 2.0 μM (third column of 13)) of 10.

In the case of `N#CC1CN1C(N)=O` (centres unmarked) [Compound 1, 2-cyanoaziridine-1-carboxamide], the IC50 (L1210 leukemia, Sens; L1210, read-out: IC50 against human mouse tumors, L1210 leukemia Sens) is given as over 90 µM, the IC50 (L1210 leukemia, Mdr; L1210, read-out: IC50 against human mouse tumors, L1210 leukemia Mdr) is given as over 90 µM and the “effect on number of leukocytes” value (leukocytes) is given as “increased the number of leukocytes”. The π [2] was 0, the IC50 [3] was 432 µM and the IC50 (WiDr colon, Sens; Homo sapiens, WiDr, read-out: IC50 against human mouse tumors, WiDr colon Sens) was over 280 µM. For the same compound, the IC50 (WiDr colon, res) was over 280 µM, the “activity against PIE 2-3 sarcoma” value (PIE 2-3 sarcoma) was “active” and the “toxicity” value (PIE 2-3 sarcoma; rat, in vivo) was “low toxicity”. For the same compound, the IC50 ([4]; MCF7, read-out: IC50 against human mouse tumors, MCF7 breast mitox) was over 54 µM, the IC50 (A-549 lung; Homo sapiens, A549, read-out: IC50 against human mouse tumors, A-549 lung) was over 280 µM and the IC50 (OVCAR3 ovarian; Homo sapiens, OVCAR-3, read-out: IC50 against human mouse tumors, OVCAR3 ovarian) was over 90 µM. It also gave an IC50 ([5]; MCF7, read-out: IC50 against human mouse tumors, MCF7 breast Dox) of over 54 µM, an IC50 [6] of 288 µM and an IC50 ([6]; read-out: IC50 against human mouse tumors, 8226 myeloma Sens) of 288 µM. For the same compound, the IC50 ([6]; read-out: Log(1/C) (converted)) was 288 µM, the IC50 (MCF7 breast, Sens; Homo sapiens, MCF7, read-out: IC50 against human mouse tumors, MCF7 breast Sens) was over 54 µM and the IC50 (A375 melan; Homo sapiens, A-375, read-out: IC50 against human mouse tumors, A375 melan) was over 90 µM.

— US20030129222A1, “Liposomal imexon” (priority 2000, published 2003)
